Drawing on paper PMC10004417, “Screening of Potential α-Glucosidase Inhibitors from the Roots and Rhizomes of Panax Ginseng by Affinity Ultrafiltration Screening Coupled with UPLC-ESI-Orbitrap-MS Method” (Molecules, 2023), this text covers inhibition for 3 molecules.

Common to all, as to assay: pNPG enzyme inhibition assay, % inhibition at […]; also affinity ultrafiltration LC-MS (PAR […])
Holding throughout (assay type): biochemical
Holding throughout (conditions): read-out: Inhibitory (%)

The target in test [1] is T1, α-Glucosidase (Saccharomyces cerevisiae, UniProt P53341).
T1 construct: gene MAL12

In test [2] the target is T1, α-Glucosidase. The source holds these as a separate data set.
Test [3] concerns the target T1, α-Glucosidase. This is another data set of the same source.

Each structure is given as a SMILES string. Like-named read-outs stand apart in the source and are kept apart here.

T1 sequence (P53341 whole entry): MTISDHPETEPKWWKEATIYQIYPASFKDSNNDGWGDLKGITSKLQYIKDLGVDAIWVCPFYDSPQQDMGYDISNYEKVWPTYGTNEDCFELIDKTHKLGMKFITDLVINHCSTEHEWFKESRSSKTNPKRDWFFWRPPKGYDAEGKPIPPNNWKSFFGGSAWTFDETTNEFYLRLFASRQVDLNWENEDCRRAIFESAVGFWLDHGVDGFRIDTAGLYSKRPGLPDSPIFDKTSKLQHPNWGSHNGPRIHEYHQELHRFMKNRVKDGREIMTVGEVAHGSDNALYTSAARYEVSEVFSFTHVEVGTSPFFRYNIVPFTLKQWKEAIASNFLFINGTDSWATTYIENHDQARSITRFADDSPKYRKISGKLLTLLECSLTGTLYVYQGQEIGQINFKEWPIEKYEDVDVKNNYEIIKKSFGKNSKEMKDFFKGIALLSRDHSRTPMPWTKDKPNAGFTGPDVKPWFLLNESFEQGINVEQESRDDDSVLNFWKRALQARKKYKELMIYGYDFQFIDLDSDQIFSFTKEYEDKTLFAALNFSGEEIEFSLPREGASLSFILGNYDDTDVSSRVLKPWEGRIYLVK

Regarding `C=C(CCC=C(C)C)[C@H]1CC[C@]2(C)C1[C@H](O)CC1[C@@]3(C)CC[C@H](O)C(C)(C)C3[C@@H](OC3O[C@H](CO)[C@@H](O)[C@H](O)[C@H]3OC3O[C@@H](C)[C@H](O)[C@@H](O)[C@H]3O)C[C@]12C` (stereo partly drawn) [R3, ginsenoside Rg6], the inhibition at 40000 µM at α-Glucosidase [1] amounted to 27.4%. Regarding `CC1(C)CC[C@]2(C(=O)O[C@@H]3O[C@H](CO)[C@@H](O)[C@H](O)[C@H]3O)CC[C@]3(C)C(=CC[C@@H]4[C@@]5(C)CC[C@H](O[C@@H]6O[C@H](C(=O)O)[C@@H](O)[C@H](O)[C@H]6O[C@@H]6O[C@H](CO)[C@@H](O)[C@H](O)[C@H]6O)C(C)(C)[C@@H]5CC[C@]43C)[C@@H]2C1` [R8, ginsenoside Ro], the inhibition at 40000 µM at α-Glucosidase [2] worked out at 20.2%. For `CC(C)=CCC[C@](C)(OC1O[C@H](COC2O[C@@H](CO)[C@H](O)[C@H]2OC2OC[C@@H](O)[C@H](O)[C@H]2O)[C@@H](O)[C@H](O)[C@H]1O)C1CC[C@]2(C)C1[C@H](O)CC1[C@@]3(C)CC[C@H](OC4O[C@H](CO)[C@@H](O)[C@H](O)[C@H]4OC4O[C@H](CO)[C@@H](O)[C@H](O)[C@H]4O)C(C)(C)C3CC[C@]12C` (stereo partly drawn) [R11, ginsenoside Ra2], the inhibition at 40000 µM at α-Glucosidase [3] is 29.5%.
